{
  "source": "patent US20120252054A1",
  "about": "“SYSTEM FOR TRANSFORMATION OF THE CHLOROPLAST GENOME OF SCENEDESMUS SP. AND DUNALIELLA SP” (priority 2009, published 2012)",
  "key": {"[1]": {"system": "Wildtype S. dimorphus", "assay": "Plating on TAP agar containing 5-fluorocytosine, wild type", "type": "cell-based, Scenedesmus dimorphus", "conditions": "1 mg/mL 5FC", "method": "To determine if functional codA is produced by transformed algae cells, cells were grown in TAP media to log phase, pelleted and resuspended to 10^8 cells/mL and plated onto TAP agar medium containing 1 mg/mL 5-fluorocytosine (5FC).\nTo determine if functional codA is produced by transformed algae cells, cells were plated onto TAP agar medium containing 1 mg/mL 5-fluorocytosine (5FC)."}, "[2]": {"system": "S. dimorphus transformants containing the codA transgene", "assay": "Plating on TAP agar containing 5-fluorocytosine, codA transformants", "type": "cell-based, Scenedesmus dimorphus", "conditions": "1 mg/mL 5FC", "excerpt": "In this example, a nucleic acid encoding cytosine deaminase gene (codA) from E. coli was introduced into S. dimorphus. Transforming DNA is shown graphically in FIG. 23. In this instance the DNA segment labeled “codA cr” is the codA encoding gene (SEQ ID NO: 31, codA), the segment labeled “psbD” is the promoter and 5′ UTR for the psbD gene from S. dimorphus, the segment labeled “D1 3′” is the 3′ UTR for the psbA gene from S. dimorphus, and the segment labeled “CAT” is the chloramphenicol acetyl transferase gene (CAT) from E. coli, which is regulated by the promoter and 5′ UTR sequence for the tufA gene from S. dimorphus and the 3′ UTR sequence for the rbcL gene from S. dimorphus. The transgene expression cassette and selection marker are targeted to the S. dimorphus chloroplast genome via the segments labeled “Homology A” and “Homology B” which are approximately 1000 bp fragments homologous to sequences of DNA adjacent to nucleotide 071,366 (Site 1; nucleotide locations according to the sequence available from NCBI for S. obliquus, NC—008101) on the 5′ and 3′ sides, respectively. All DNA segments were cloned into pUC19. All DNA manipulations carried out in the construction of this transforming DNA were essentially as described by Sambrook et al., Molecular Cloning: A Laboratory Manual (Cold Spring Harbor Laboratory Press 1989) and Cohen et al., Meth. Enzymol. 297, 192-208, 1998. […]"}, "[3]": {"system": "S. obliquus transformants containing the codA transgene", "assay": "Plating on TAP agar containing 5-fluorocytosine, codA transformants of S. obliquus", "type": "cell-based, Scenedesmus obliquus", "conditions": "1 mg/mL 5FC", "excerpt": "In this example, a nucleic acid encoding cytosine deaminase gene (codA) from E. coli was introduced into S. obliquus. Transforming DNA is shown graphically in FIG. 23. In this instance the DNA segment labeled “codA cr” is the codA encoding gene (SEQ ID NO: 27, codA), the segment labeled “psbD” is the promoter and 5′ UTR for the psbD gene from S. dimorphus, the segment labeled “D1 3′” is the 3′ UTR for the psbA gene from […], and the segment labeled “CAT” is the chloramphenicol acetyl transferase gene (CAT) from E. coli, which is regulated by the promoter and 5′ UTR sequence for the tufA gene from S. dimorphus and the 3′ UTR sequence for the rbcL gene from S. dimorphus. The transgene expression cassette and selection marker are targeted to the S. obliquus chloroplast genome via the segments labeled “Homology A” and “Homology B” which are approximately 1000 bp fragments homologous to sequences of DNA adjacent to nucleotide 071,366 (Site 1; nucleotide locations according to the sequence available from NCBI for S. obliquus, NC—008101) on the 5′ and 3′ sides, respectively. All DNA segments were cloned into pUC19. All DNA manipulations carried out in the construction of this transforming DNA were essentially as described by Sambrook et al., Molecular Cloning: A Laboratory Manual (Cold Spring Harbor Laboratory Press 1989) and Cohen et al., Meth. Enzymol. 297, 192-208, 1998. […]"}, "[4]": {"system": "wild type S. dimorphus", "assay": "Growth in HSM with various concentrations of DCMU or atrazine, wild type", "type": "cell-based, Scenedesmus dimorphus", "conditions": "constant light 50-100 uE with CO2 enrichment, 4 days"}, "[5]": {"system": "S. dimorphus DCMU transformants (CAT cassette)", "assay": "Patching of DCMU-selected CAT-cassette transformants onto TAP agar with chloramphenicol", "type": "cell-based, Scenedesmus dimorphus", "conditions": "TAP agar medium containing 25 μg/mL CAM", "excerpt": "In order to determine if DCMU selection could result in incorporation of an expression cassette downstream of the psbA gene, A vector was constructed containing an expression cassette consisting of an endogenous promoter, a chloramphenicol acetyltransferase (CAT) gene, and an endogenous terminator cloned ˜500 bp downstream of the S264A/XbaI mutated psbA gene fragment from S. dimorphus and including the rpl20 gene. Transforming DNA is shown graphically in FIG. 4. In this instance the DNA segment labeled “CAT” is the chloramphenicol acetyl transferase gene from E. coli, the segment labeled “tufA” is the promoter and 5′ UTR sequence for the tufA gene from S. dimorphus, and the segment labeled “rbcL” is the 3′ UTR for the rbcL gene from S. dimorphus. The selection marker cassette is targeted to the S. dimorphus chloroplast genome via the segments labeled “Homology A2” and “Homology B2” which are 1000 bp fragments homologous to sequences of DNA adjacent to nucleotide 065,353 and include an S264A/XbaI mutated partial psbA coding sequence, its 3′UTR, and the rpl20 coding sequence. This vector targets integration of the selection marker cassette approximately 400 bp 3′ of the stop codon of the psbA gene.\nTransforming DNA was introduced into S. dimorphus via particle bombardment (as described in EXAMPLE 1) with DNA carried on 550 nm gold particles, @500 psi and a shooting distance of 4 cm. […]"}},
  "data": [
    {"smiles": "Nc1nc(=O)[nH]cc1F", "note": "[5FC, 5-fluorocytosine]", "values": [
      {"measurement": "survival on TAP agar containing 5FC", "setting": "[1]", "result": "survived"},
      {"measurement": "survival on TAP agar containing 5FC", "setting": "[2]", "result": "do not"},
      {"measurement": "survival on TAP agar containing 5FC", "setting": "[3]", "result": "did not"}
    ]},
    {"smiles": "CCNc1nc(Cl)nc(NC(C)C)n1", "note": "[Atrazine]", "values": [
      {"measurement": "concentration in which cells fail to grow", "setting": "[4]", "result": 0.5, "unit": "µM"}
    ]},
    {"smiles": "O=C(N[C@H](CO)[C@H](O)c1ccc([N+](=O)[O-])cc1)C(Cl)Cl", "note": "[CAM, chloramphenicol]", "values": [
      {"measurement": "resistance of transformants to chloramphenicol", "setting": "[5]", "result": "resistant"}
    ]},
    {"smiles": "CN(C)C(=O)Nc1ccc(Cl)c(Cl)c1", "note": "[DCMU, 3-(3,4-Dichlorophenyl)-1,1-dimethylurea]", "values": [
      {"measurement": "concentration in which cells fail to grow", "setting": "[4]", "result": 0.5, "unit": "µM"}
    ]}
  ]
}
